Measured values: patent US5262417A, “Antibacterial quinolone compounds” (The Upjohn Company, priority 1991, dated 1993)
≈ marks a conversion by molar mass, not a printed value. Where “and” joins values, the source holds several entries; their conditions need not be identical. Identical values can stand only once. Like-named read-outs stand apart in the source and are kept apart here.

Tests used:
Test in all cases: Minimum inhibitory concentration (MIC) by agar dilution
Type in all cases: cell-based
Streptococcus pyogenes = settings: for MIC: Streptococcus pyogenes
How it was run: (§1)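 Agar dilution per NCCLS guidance: compounds serially diluted into unsupplemented Mueller Hinton agar at 47 °C. Bacteria grown overnight at 35 °C, adjusted in TSB to 0.5 McFarland, diluted 1:20 and spotted with a Steers replicator; MIC is the lowest inhibitory concentration.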

[1] = tested on: Staphylococcus epidermidis; settings: 20 h
How it was run: as §1

Staphylococcus aureus = settings: for MIC: Staphylococcus aureus
How it was run: as §1

Q: With `O=C(O)c1cn(C2CC2)c2cc(N3CCNCC3)c(F)cc2c1=O` [Ciprofloxacin, reference compound] as the molecule, how does the “MINIMUM INHIBITORY CONCENTRATION” value (Streptococcus pyogenes; Cult No. 152, MHA) read?
A: 0.25 mcg per ml and 0.125 mcg per ml

Q: What about the MIC (Streptococcus pyogenes; 20 h, read-out: MINIMUM INHIBITORY CONCENTRATION, Cult No. 152, MHA) of the same molecule?
A: 0.25 µg/mL (≈ 0.754 µM)

Q: What about the MIC (Streptococcus pyogenes; UC152, 20 h, read-out: Minimum Inhibitory Concentration, S. pyogenes UC 152, Table CI) of the same molecule?
A: 0.25 µg/mL (≈ 0.754 µM)

Q: And the MIC ([1]; read-out: MINIMUM INHIBITORY CONCENTRATION)?
A: 0.125 µg/mL (≈ 0.377 µM)

Q: And the MIC ([1]; read-out: Minimum Inhibitory Concentration)?
A: 0.06 µg/mL (≈ 0.181 µM)

Q: And the “MINIMUM INHIBITORY CONCENTRATION” value (Staphylococcus aureus; Cult No. 6685, MHA)?
A: 0.25 mcg per ml and 0.125 mcg per ml

Q: And the “MINIMUM INHIBITORY CONCENTRATION” value (Staphylococcus aureus; Cult No. 9213, MHA)?
A: 1 mcg per ml and 0.5 mcg per ml

Q: And the “MINIMUM INHIBITORY CONCENTRATION” value (Staphylococcus aureus; Cult No. 9218, MHA)?
A: 0.5 mcg per ml and 0.25 mcg per ml

Q: What about the MIC (Staphylococcus aureus; 20 h, read-out: MINIMUM INHIBITORY CONCENTRATION, Cult No. 3665, MHA) of the same molecule?
A: 1 µg/mL (≈ 3.02 µM)

Q: And the MIC (Staphylococcus aureus; 20 h, read-out: MINIMUM INHIBITORY CONCENTRATION, Cult No. 6685, MHA)?
A: 0.25 µg/mL (≈ 0.754 µM)

Q: What about the MIC (Staphylococcus aureus; 20 h, read-out: MINIMUM INHIBITORY CONCENTRATION, Cult No. 9213, MHA) of the same molecule?
A: 1 µg/mL (≈ 3.02 µM)

Q: What about the MIC (Staphylococcus aureus; 20 h, read-out: MINIMUM INHIBITORY CONCENTRATION, Cult No. 9218, MHA) of the same molecule?
A: 0.5 µg/mL (≈ 1.51 µM)

Q: What about the MIC (Staphylococcus aureus; 20 h, read-out: MINIMUM INHIBITORY CONCENTRATION, Cult No. 9271, MHA) of the same molecule?
A: 0.5 µg/mL (≈ 1.51 µM)

Q: And the MIC (Staphylococcus aureus; UC6685, 20 h, read-out: Minimum Inhibitory Concentration, S. aureus UC 6685, Table CI)?
A: 0.25 µg/mL (≈ 0.754 µM)

Q: What about the MIC (Staphylococcus aureus; UC9213, 20 h, read-out: Minimum Inhibitory Concentration, S. aureus UC 9213, Table CI) of the same molecule?
A: 1 µg/mL (≈ 3.02 µM)

Q: And the MIC (Staphylococcus aureus; UC9218, 20 h, read-out: Minimum Inhibitory Concentration, S. aureus UC 9218, Table CI)?
A: 0.5 µg/mL (≈ 1.51 µM)

Q: And the MIC (Staphylococcus aureus; UC9271, 20 h, read-out: Minimum Inhibitory Concentration, S. aureus UC 9271, Table CI)?
A: 0.5 µg/mL (≈ 1.51 µM)
